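Growth conditions: 96-well plates. Treatment: test compound, 48 hours, 5 concentrations. Analysis: linear interpolation between bracketing concentrations; unreached endpoints set to highest concentration. At the GI50, growth is halved. At the TGI there is no net growth.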
Key:
Assay in all cases: DTP human tumour cell line panel, 48 h
[1] = tested on: CCRF-CEM leukemia
[2] = tested on: DU-145 prostate
[3] = tested on: EKVX NSCLC
[4] = tested on: LOX IMVI melanoma
[5] = tested on: MALME-3M melanoma
[6] = tested on: NCI-H522 lung
[7] = tested on: PC-3 prostate
[8] = tested on: SF-268 CNS
[9] = tested on: TK-10 renal
[10] = tested on: A498 renal

Row | Structure (SMILES) | TGI [1] [µM] | TGI [2] [µM] | TGI [3] [µM] | TGI [4] [µM] | TGI [5] [µM] | TGI [6] [µM] | TGI [7] [µM] | TGI [8] [µM] | TGI [9] [µM] | TGI [10] [µM] | GI50 [10] [µM] | GI50 [1] [µM] | GI50 [2] [µM] | GI50 [3] [µM] | GI50 [4] [nM] | GI50 [5] [nM] | GI50 [6] [µM] | GI50 [7] [µM] | GI50 [8] [µM] | GI50 [9] [nM]
1 | Cc1c2ccccc2cc2cccc[n+]12 | > 100 | > 100 | 92.5 | > 100 | 27.9 | 37.4 | > 100 | 40.4 | > 100 | – | – | – | – | – | – | – | – | – | – | –
2 | COc1cc2cc[n+](C)c(Cc3ccc(Oc4cc(Cc5c6cc(OC)c(OC)cc6cc[n+]5C)ccc4OC)cc3)c2cc1OC | > 100 | > 100 | > 100 | > 100 | > 100 | > 100 | > 100 | > 100 | > 100 | > 100 | – | – | – | – | – | – | – | – | – | –
3 | Oc1ccc(Cl)cc1C1=Nn2c(COc3ccc4c(c3)CCCC4)nnc2SC1 | 46.3 | 40 | 34.7 | 29.3 | > 100 | 21.6 | 26.7 | 35 | 20.1 | 11.8 | – | – | – | – | – | – | – | – | – | –
4 | CC(NC(=O)c1ccc(OP(=O)(OCc2ccc([N+](=O)[O-])o2)N(C)CCCCCl)cc1)c1ccc(OCC2CCCCC2)c(C(N)=O)c1 (centres undefined) | 0.842 | > 29 | > 100 | 5.43 | 10.7 | 6.44 | 49.1 | 10.9 | 60.9 | 63.2 | – | – | – | – | – | – | – | – | – | –
5 | COc1ccc(-n2nc(C(=O)c3ccccc3)c3nn4c(=O)cc(-c5ccccc5)nc4nc32)cc1 | > 100 | > 100 | > 100 | > 100 | > 100 | 81.2 | > 100 | > 100 | > 100 | > 100 | 66.2 | 28.9 | 49.2 | 53.5 | 34500 | 34500 | 23.1 | 50.5 | 39.1 | 40300
6 | CN(CCN1C(=O)c2cccc3cccc(c23)C1=O)CCN1C(=O)c2cccc3cccc(c23)C1=O | 6.91 | > 100 | > 100 | > 100 | > 100 | 40.6 | > 100 | > 100 | 27.7 | – | – | – | – | – | – | – | – | – | – | –
7 | C#C[C@]1(O)[C@@H](CO)O[C@@H](n2ccc(=O)[nH]c2=O)[C@@H]1O | > 100 | 0.695 | > 100 | 1.57 | 7.62 | 1.64 | > 29.6 | – | > 100 | > 100 | – | – | – | – | – | – | – | – | – | –
8 | O=C1/C(=C/c2ccc([N+](=O)[O-])cc2)Sc2scc(-c3cccc([N+](=O)[O-])c3)[n+]21 | 1.3 | 23.7 | 25 | 8.03 | 3.22 | 2.69 | 26.8 | 7.75 | 17.8 | 7.98 | – | – | – | – | – | – | – | – | – | –
9 | C=C(CN(C)C)C(=O)c1ccccc1Cl | 44.3 | > 100 | > 76.6 | 33.4 | 31.7 | 15.6 | – | 42.7 | 39.2 | > 96 | – | – | – | – | – | – | – | – | – | –
10 | OC1CCSc2ccccc21 (centres undefined) | > 100 | – | > 100 | > 100 | > 100 | > 100 | – | > 100 | – | – | – | – | – | – | – | – | – | – | – | –
11 | COc1ccc2c3c([nH]c2c1)[C@H](C=C(C)C)N1C(=O)[C@@H]2CCCN2C(=O)[C@@H]1C3 | > 100 | > 100 | > 100 | > 100 | > 100 | > 100 | > 100 | > 100 | > 100 | > 100 | – | – | – | – | – | – | – | – | – | –
12 | CC(C)C(=O)CC(c1ccc(Br)cc1)N1N=C(C(C)C)CC1c1ccc(Br)cc1 (centres undefined) | > 100 | – | > 100 | > 100 | > 100 | > 100 | – | > 100 | > 100 | – | – | – | – | – | – | – | – | – | – | –
13 | CN(CCc1ccccn1)c1ccc2c(c1)Cc1ccccc1-2 | 68.8 | > 100 | 62 | > 100 | 93.7 | 62.1 | 23.9 | > 100 | > 100 | 50.6 | – | – | – | – | – | – | – | – | – | –
14 | Fc1c(F)c(F)c(CSc2nc3ccccc3[nH]2)c(F)c1F | > 100 | > 100 | > 100 | > 100 | > 100 | > 100 | > 100 | > 100 | > 100 | > 100 | – | – | – | – | – | – | – | – | – | –
15 | CC1(C)CC(C(=O)OCCCCCCCCCCC[P+](c2ccccc2)(c2ccccc2)c2ccccc2)C(C)(C)N1O (centres undefined) | 0.766 | 1.39 | – | 1.05 | – | – | – | 1.54 | 1.67 | 1.26 | 0.353 | 0.11 | 0.319 | – | 207 | – | – | – | 0.394 | 362
16 | CC(C)(C)COS(=O)OCC(C)(C)C | > 100 | > 100 | > 100 | > 100 | > 100 | > 100 | > 100 | > 100 | > 100 | > 100 | – | – | – | – | – | – | – | – | – | –
17 | O=C1CNc2cc(N3CCCCC3)ccc2N1 | > 100 | > 100 | 50.9 | – | > 100 | > 100 | > 100 | – | > 100 | – | – | – | – | – | – | – | – | – | – | –
18 | NC(N)=N/N=C/c1c(-c2cccs2)nc2n1CCS2 | 34 | – | 85.7 | – | – | > 100 | 36 | 53.3 | 46.5 | > 100 | 5.65 | 17.2 | – | 27.7 | – | – | 38.2 | 19.7 | 25.5 | 18300
19 | Cc1ccc(S(=O)(=O)Nc2cc(=O)[nH]c3c2CCC3)cc1 | > 100 | > 100 | > 100 | > 100 | > 100 | > 100 | > 100 | > 100 | > 100 | > 100 | – | – | – | – | – | – | – | – | – | –
20 | CS(=O)(=O)Nc1cccc(-c2ccc3ncnc(Nc4cncc(Cl)c4)c3c2)c1 | > 100 | > 100 | – | – | 8.38 | 4.93 | – | > 100 | 5.44 | – | – | 3.09 | 1.16 | – | – | 2340 | 1.75 | – | 2.26 | 748
21 | CC12OC(C(=O)C13CCC3)C1C(=O)c3c(O)ccc(O)c3C(=O)C12 (centres undefined) | > 100 | 19.5 | 22.7 | > 100 | 3.88 | 10.2 | 9.09 | 26.3 | 1.57 | 29.8 | 14.5 | 0.38 | 5.01 | 9.34 | 2330 | 1800 | 2.95 | 2.72 | 7.96 | 587

— PubChem BioAssay (NCI)
